Active and inactive are the calls of the source.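 How the source made its calls: active means compound-induced drop in polymyxin IC50 in wild-type bacteria exceeding double the drop in a mutant lacking PhoP; inactive means the rest.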
How the values were obtained:
[1] = polymyxin sensitization in S. Typhimurium, mechanism study for PhoP regulon inhibitor project, Salmonella typhimurium, WT and phoP- strains, set 2 (AID 2816); settings: S. Typhimurium polymyxin IC50 shift, OD600, 24 h, at 150 µM
[2] = test system: S. Typhimurium polymyxin IC50 shift, OD600, 24 h; assay: as above
[3] = measured here: phoP- strain counter-screen shift
[4] = measured here: wild-type strain IC50 shift, stronger effect = higher value
[5] = WT polymyxin IC50 at 150 uM, stronger effect = lower value

For `O=C1C2=C(Nc3ccccc3SC2c2ccsc2)c2ccccc21` (stereo not drawn), which polymyxin IC50 shift difference WT - phoP- ([1]; stronger effect = higher value) is on record?
The polymyxin IC50 shift difference WT - phoP- was 2.14 (inactive).

What about the polymyxin IC50 shift [1, 3] of the same compound?
The polymyxin IC50 shift was -0.359.

What about the polymyxin IC50 shift [1, 4] of the same compound?
The polymyxin IC50 shift was 1.78.

And the polymyxin IC50 [2, 5]?
The polymyxin IC50 was 2670 nM.

What about the polymyxin IC50 ([2]; phoP- polymyxin IC50 at 150 uM) of the same compound?
The polymyxin IC50 was 3000 nM.

What does the source list for `O=C(Nc1ccc(Br)cc1)N1CCCN(Cc2ccccc2F)C1`?
polymyxin IC50 shift difference WT - phoP- ([1]; stronger effect = higher value): -2.51 (inactive); polymyxin IC50 shift [1, 3]: 1.55; polymyxin IC50 shift [1, 4]: -0.956; polymyxin IC50 [2, 5]: 4820 nM; polymyxin IC50 ([2]; phoP- polymyxin IC50 at 150 uM): 2620 nM

What does the source list for `COc1cccc(C2Sc3ccccc3NC3=C2C(=O)c2ccccc23)c1` (stereo not drawn)?
polymyxin IC50 shift difference WT - phoP- ([1]; stronger effect = higher value): -1.75 (inactive); polymyxin IC50 shift [1, 3]: 5.35; polymyxin IC50 shift [1, 4]: 3.6; polymyxin IC50 [2, 5]: 2110 nM

For `O=C1C2=C(Nc3ccccc3SC2c2ccc(I)cc2)c2ccccc21` (stereo not drawn), which polymyxin IC50 shift difference WT - phoP- ([1]; stronger effect = higher value) is on record?
The polymyxin IC50 shift difference WT - phoP- was 1.63 (inactive).

And the polymyxin IC50 shift [1, 3]?
The polymyxin IC50 shift was 1.03.

And the polymyxin IC50 shift [1, 4]?
The polymyxin IC50 shift was 2.66.

What about the polymyxin IC50 [2, 5] of the same compound?
The polymyxin IC50 was 2470 nM.

And the polymyxin IC50 ([2]; phoP- polymyxin IC50 at 150 uM)?
Its polymyxin IC50 is 2890 nM.

With `CCn1cc(C(=O)O)c(=O)c2cc(F)c(N3CCN(C(=S)Nc4ccccc4C(F)(F)F)CC3)cc21` as the compound, how does the polymyxin IC50 shift difference WT - phoP- ([1]; stronger effect = higher value) read?
The polymyxin IC50 shift difference WT - phoP- was -3.38 (inactive).

And the polymyxin IC50 shift [1, 3]?
The polymyxin IC50 shift was 3.42.

And the polymyxin IC50 shift [1, 4]?
Its polymyxin IC50 shift is 0.032.

What about the polymyxin IC50 [2, 5] of the same compound?
The polymyxin IC50 was 2590 nM.

And the polymyxin IC50 ([2]; phoP- polymyxin IC50 at 150 uM)?
The polymyxin IC50 was 2950 nM.

What does the source list for `COc1ccc(CNC(=S)Nc2ccncc2)cc1`?
polymyxin IC50 shift [1, 3]: 1.46; polymyxin IC50 shift [1, 4]: 10.1; IC50 [2]: 75000 nM; polymyxin IC50 ([2]; phoP- polymyxin IC50 at 150 uM): 4420 nM
